We go through ten molecules from US8772498B2, “Alkylamine-substituted dicyanopyridine and amino acid ester prodrugs thereof” (Bayer Intellectual Property GmbH, priority 2009, dated 2014).

The test system of one data set is mice (strain: CD1). The experiment in a line: Locomotor action in the treadmill experiment. The settings on record: oral. In kind it is in vivo. The text has this: B-7. Test of Adenosine A1 Receptor Agonists on Locomotor Action in the Treadmill Experiment To determine the action of adenosine A1 receptor agonists on locomotor function, the running behavior of mice (strain: CD1) in treadmills (M. Weber et al., Psychopharmacology 2008, in print) is examined. To get the mice accustomed to voluntary use of the treadmill, 2-3 weeks prior to the start of the experiment the animals are isolated in cages with a treadmill and trained. 2 weeks prior to the start of the experiment, the movements of the mice in the treadmill are recorded by a photo cell using a computer, and various running parameters such as, for example, the distance run in a day, the individual distances covered, and also their distribution over the day are determined. According to their natural running behavior, the animals are randomized into groups (8-12 animals) (control group and 1—a plurality of substance groups). After the initial 2-week phase, the animals are treated orally with the substances to be tested. Here, single doses or else increasing dosages (for example 0.3-1-3-10-30 mg/kg) are administered. The substances are tested in two independent experiments. Between 2 experiments, there are at least 3 days where the animals are not administered any substances. The running behavior of the animals is observed and recorded for 24 hours after administration. Evaluation of the running intervals and the total distance covered takes place over a period of several hours during the main activity period of the mice. Effects are stated in percent of the control.

The next data set concerns the target T1, adenosine A1 receptor (Homo sapiens, UniProt P30542).
T1 construct: expressed in transfected cells; host or cells: CHO (Chinese Hamster Ovary)
T1 sequence (P30542 1-326): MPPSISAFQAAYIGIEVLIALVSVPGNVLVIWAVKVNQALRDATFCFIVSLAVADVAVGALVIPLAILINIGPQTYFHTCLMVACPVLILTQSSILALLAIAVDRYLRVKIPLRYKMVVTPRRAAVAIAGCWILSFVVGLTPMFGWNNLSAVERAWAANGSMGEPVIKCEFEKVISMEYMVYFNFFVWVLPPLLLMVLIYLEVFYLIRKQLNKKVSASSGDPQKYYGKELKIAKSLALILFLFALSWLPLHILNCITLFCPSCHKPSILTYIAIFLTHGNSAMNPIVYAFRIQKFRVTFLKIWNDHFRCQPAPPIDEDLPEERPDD
Description: Indirect determination of adenosine agonism by gene expression (luciferase), A1 cells. In kind it is cell-based. Conditions: CHO cells, luciferase readout, 1 μM forskolin. The text has this:
(§1) B-1. Indirect Determination of the Adenosine Agonism by Way of Gene Expression
(§2) Cells of the CHO (Chinese Hamster Ovary) permanent cell line are transfected stably with the cDNA for the adenosine receptor subtypes A1, A2a and A2b. The adenosine A1 receptors are coupled to the adenylate cyclase by way of G, proteins, while the adenosine A2a and A2b receptors are coupled by way of Gs proteins. In correspondence with this, the formation of cAMP in the cell is inhibited or stimulated, respectively. After that, expression of the luciferase is modulated by way of a cAMP-dependent promoter. The luciferase test is optimized, with the aim of high sensitivity and reproducibility, low variance and good suitability for implementation on a robot system, by varying several test parameters, such as cell density, duration of the growth phase and the test incubation, forskolin concentration and medium composition. The following test protocol is used for pharmacologically characterizing cells and for the robot-assisted substance screening:
(§3) The stock cultures are grown, at 37° C. and under 5% CO2, in DMEM/F12 medium containing 10% FCS (fetal calf serum) and in each case split 1:10 after 2-3 days. The test cultures are seeded in 384-well plates with 2000 cells per well and grown at 37° C. for approx. 48 hours. The medium is then replaced with a physiological sodium chloride solution (130 mM sodium chloride, 5 mM potassium chloride, 2 mM calcium chloride, 20 mM HEPES, 1 mM magnesium chloride hexahydrate, 5 mM sodium bicarbonate, pH 7.4). The substances to be tested, which are dissolved in DMSO, are pipetted into the test cultures (maximum final concentration of DMSO in the test mixture: 0.5%) in a dilution series of from 5×10^−11 M to 3×10^−6 M (final concentration). 10 minutes later, forskolin is added to the A1 cells and all the cultures are subsequently incubated at 37° C. for four hours. After that, 35 μl of a solution which is composed of 50% lysis reagent (30 mM disodium hydrogenphosphate, 10% glycerol, 3% TritonX100, 25 mM TrisHCl, 2 mM dithiotreitol (DTT), pH 7.8) and 50% luciferase substrate solution (2.5 mM ATP, 0.5 mM luciferin, 0.1 mM coenzyme A, 10 mM tricine, 1.35 mM magnesium sulfate, 15 mM DTT, pH 7.8) are added to the test cultures, which are shaken for approx. 1 minute and the luciferase activity is measured using a camera system. The ECK values are determined, i.e., the concentrations at which 50% of the luciferase answer is inhibited in the case of the A1 cell, and, respectively, 50% of the maximum stimulation with the corresponding substance is achieved in the case of the A2b and A2a cells.
(§4) Table 1 below lists the ECK values of representative working examples for the receptor stimulation on adenosine A1, A2a and A2b receptor subtypes: […]

The next data set deals with T2, adenosine A2a receptor (Homo sapiens, UniProt P29274).
T2 construct: expressed in transfected cells; host or cells: CHO (Chinese Hamster Ovary)
T2 sequence (P29274 whole entry): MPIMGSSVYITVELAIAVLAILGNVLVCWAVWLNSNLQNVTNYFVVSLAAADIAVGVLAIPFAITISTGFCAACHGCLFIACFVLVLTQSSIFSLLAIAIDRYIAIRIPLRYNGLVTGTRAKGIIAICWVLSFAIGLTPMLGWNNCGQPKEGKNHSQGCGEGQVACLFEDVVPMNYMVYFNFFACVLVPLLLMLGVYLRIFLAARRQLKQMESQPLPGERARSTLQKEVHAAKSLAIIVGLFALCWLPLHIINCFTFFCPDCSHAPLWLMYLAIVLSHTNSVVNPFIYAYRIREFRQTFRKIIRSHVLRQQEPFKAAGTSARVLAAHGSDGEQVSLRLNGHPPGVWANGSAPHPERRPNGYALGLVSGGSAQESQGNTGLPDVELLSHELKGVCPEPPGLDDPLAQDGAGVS
The experiment in a line: Indirect determination of adenosine agonism by gene expression (luciferase), A2a cells. In kind it is cell-based. The settings on record: CHO cells, luciferase readout.
Description: as §1, §2, §3, §4

The target in the next data set is T3, adenosine A2b receptor (Homo sapiens, UniProt P29275).
T3 construct: expressed in transfected cells; host or cells: CHO (Chinese Hamster Ovary)
T3 sequence (P29275 1-332): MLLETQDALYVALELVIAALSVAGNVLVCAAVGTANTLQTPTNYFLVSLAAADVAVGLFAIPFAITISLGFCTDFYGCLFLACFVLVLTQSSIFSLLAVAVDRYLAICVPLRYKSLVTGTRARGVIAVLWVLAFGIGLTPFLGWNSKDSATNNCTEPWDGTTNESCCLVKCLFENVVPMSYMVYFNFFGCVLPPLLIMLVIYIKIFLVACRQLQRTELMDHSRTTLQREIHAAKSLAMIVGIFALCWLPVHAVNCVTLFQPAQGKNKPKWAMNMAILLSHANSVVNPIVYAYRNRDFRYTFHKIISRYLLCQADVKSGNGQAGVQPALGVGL
Description: Indirect determination of adenosine agonism by gene expression (luciferase), A2b cells. The format is cell-based. The settings on record: CHO cells, luciferase readout.
Description: as §1, §2, §3, §4

For data set [1], the system named is spontaneously hypertensive rats. Description: Measurement of blood pressure and heart rate on awake rats (telemetry). The format is in vivo. The settings on record: maximum reduction in heart rate, oral administration of 3 mg/kg, awake SH rats. The method, then:
B-5. Measurement of Blood Pressure and Heart Rate
Awake spontaneously hypertensive rats (SH-Ratten) carrying an internal transmitter capable of measuring permanently both blood pressure and heart rate (telemetric monitoring of hemodynamic parameters) and sitting in a cage fitted with motion sensors are orally administered test substances in various dosages. Blood pressure and heart rate and changes thereof, and also the movements and the activity of the animals are then recorded and evaluated for 24 hours.

Data set [2] in a line: Determination of the solubility in 5% strength aqueous dextrose solution. The format is physicochemical. The settings on record: result in words. The method, then: B-8. Determination of Solubility, Stability and Liberation Behavior a) Determination of the Solubility:
The test substance is suspended in 5% strength aqueous dextrose solution. This suspension is shaken at room temperature for 24 h. After ultracentrifugation at 224 000 g for 30 min, the supernatant is diluted with DMSO and analyzed by HPLC. A two-point calibration plot of the test compound in DMSO is used for quantification.
Agilent 1100 with DAD (G1315A), quat. pump (G1311A), autosampler CTC HTS PAL, degasser (G1322A) and column thermostat (G1316A); column: Phenomenex Gemini C18, 5 μm, 50 mm×2 mm; temperature: 40° C.; eluent A: water/phosphoric acid pH 2; eluent B: acetonitrile; flow rate: 0.7 ml/min; gradient: 0-0.5 min 85% A, 15% B; ramp: 0.5-3 min 10% A, 90% B; 3-3.5 min 10% A, 90% B; ramp: 3.5-4 min 85% A, 15% B; 4-5 min 85% A, 15% B.
Agilent 1100 with DAD (G1315A), quat. pump (G1311A), autosampler CTC HTS PAL, degasser (G1322A) and column thermostat (G1316A); column: VDSoptilab Kromasil 100 C18, 3.5 μm, 60 mm×2.1 mm; temperature: 30° C.; eluent A: water+5 ml perchloric acid/I; eluent B: acetonitrile; flow rate: 0.75 ml/min; gradient: 0-0.5 min 98% A, 2% B; ramp: 0.5-4.5 min 10% A, 90% B; 4.5-6 min 10% A, 90% B; ramp: 6.5-6.7 min 98% A, 2% B; 6.7-7.5 min 98% A, 2% B.

`N#Cc1c(SCc2csc(-c3ccc(Cl)cc3)n2)nc(N2CCCCC2)c(C#N)c1-c1ccc(OCCO)cc1` [Example 13]: the “Reduction of the total distance run by 1 mg/kg” value (from here on “Reduction … by 1 mg/kg”) in the data set on mice (strain: CD1) worked out at 0%.

As a reminder, the EC50 is the concentration that produces a half-maximal response. High values mean weaker potency, low ones greater potency. Consider `N#Cc1c(NC2CC2)nc(SCc2csc(-c3ccc(Cl)cc3)n2)c(C#N)c1-c1ccc(OCCO)cc1` [Example 9], for which the concentration for a half-maximal effect (EC50) was 0.7 nM on adenosine A1 receptor, 281 nM on adenosine A2a receptor and 231 nM at adenosine A2b receptor.

As to `COCCN(C)c1nc(SCc2csc(-c3ccc(Cl)cc3)n2)c(C#N)c(-c2ccc(OCCO)cc2)c1C#N` [Example 21, 2-({(2-(4-chlorophenyl)-1,3-thiazol-4-yl)methyl}sulfanyl)-4-(4-(2-hydroxyethoxy)phenyl)-6-((2-methoxyethyl)(methyl)amino)pyridine-3,5-dicarbonitrile], the EC50 at adenosine A1 receptor stood at 0.9 nM; at adenosine A2a receptor, 743 nM. Besides, the “Reduction … by 1 mg/kg” value in the data set on mice (strain: CD1) was determined as 7.5%.

In the case of `CNc1nc(SCc2csc(-c3ccc(Cl)cc3)n2)c(C#N)c(-c2ccc(OCCO)cc2)c1C#N` [Example 2, 2-({(2-(4-Chlorophenyl)-1,3-thiazol-4-yl)methyl}sulfanyl)-4-(4-(2-hydroxyethoxy)phenyl)-6-(methylamino)pyridine-3,5-dicarbonitrile], the Heart rate reduction in data set [1] is given as −45%. Moreover, in data set [2], the “Solubility of the active substance” value is “below the detection limit”.

Consider `N#Cc1c(NCCF)nc(SCc2csc(-c3ccc(Cl)cc3)n2)c(C#N)c1-c1ccc(OCCO)cc1` [Example 33, 2-({(2-(4-Chlorophenyl)-1,3-thiazol-4-yl)methyl}sulfanyl)-6-((2-fluoroethyl)amino)-4-(4-(2-hydroxyethoxy)phenyl)pyridine-3,5-dicarbonitrile], for which the results for the EC50 on adenosine A1 receptor, at adenosine A2a receptor and at adenosine A2b receptor were 0.05 nM, 27 nM and 900 nM, respectively. For the same molecule, in the data set with mice (strain: CD1), the “Reduction … by 1 mg/kg” value is 24%.

Turning to `N#Cc1c(SCc2csc(-c3ccc(Cl)cc3)n2)nc(N2CCC(F)(F)C2)c(C#N)c1-c1ccc(OCCO)cc1` [Example 26, 2-({(2-(4-Chlorophenyl)-1,3-thiazol-4-yl)methyl}sulfanyl)-6-(3,3-difluoropyrrolidin-1-yl)-4-(4-(2-hydroxyethoxy)phenyl)pyridine-3,5-dicarbonitrile], the EC50 on adenosine A1 receptor came out at 0.5 nM; at adenosine A2b receptor, 1000 nM.

In the case of `CCNc1nc(SCc2csc(-c3ccc(Cl)cc3)n2)c(C#N)c(-c2ccc(OCCO)cc2)c1C#N` [Example 3, 2-({(2-(4-Chlorophenyl)-1,3-thiazol-4-yl)methyl}sulfanyl)-6-(ethylamino)-4-(4-(2-hydroxy-ethoxy)phenyl)pyridine-3,5-dicarbonitrile], the EC50 was 0.3 nM at adenosine A1 receptor, 282 nM at adenosine A2a receptor and 138 nM at adenosine A2b receptor.

`N#Cc1c(SCc2csc(-c3ccc(Cl)cc3)n2)nc(N2CCCC2)c(C#N)c1-c1ccc(OCCO)cc1` [Example 1]: the EC50 at adenosine A1 receptor came to 0.1 nM; at adenosine A2a receptor, 673 nM; at adenosine A2b receptor it was 80 nM. In addition, in data set [1], the Heart rate reduction is −20%. Also, in the data set with mice (strain: CD1), the “Reduction … by 1 mg/kg” value amounted to 0%. Also, the “Solubility of the active substance” value in data set [2] is given as “below the detection limit”.

Regarding `COC1CCN(c2nc(SCc3csc(-c4ccc(Cl)cc4)n3)c(C#N)c(-c3ccc(OCCO)cc3)c2C#N)CC1` [Example 24, 2-({(2-(4-chlorophenyl)-1,3-thiazol-4-yl)methyl}sulfanyl)-4-(4-(2-hydroxyethoxy)phenyl)-6-(4-methoxypiperidin-1-yl)pyridine-3,5-dicarbonitrile], the values for the EC50 on adenosine A1 receptor, on adenosine A2a receptor and on adenosine A2b receptor were 0.6 nM, 287 nM and 675 nM, respectively.

Consider `CCN(C)c1nc(SCc2csc(-c3ccc(Cl)cc3)n2)c(C#N)c(-c2ccc(OCCO)cc2)c1C#N` [Example 5, 2-({(2-(4-Chlorophenyl)-1,3-thiazol-4-yl)methyl}sulfanyl)-6-(ethyl(methyl)amino)-4-(4-(2-hydroxyethoxy)phenyl)pyridine-3,5-dicarbonitrile], for which the half-maximal effective concentration (EC50) on adenosine A1 receptor turned out to be 0.5 nM; at adenosine A2a receptor, 315 nM; at adenosine A2b receptor it was 150 nM.
